Measurements from publication PMC6272905, “In Vitro and In Vivo Characterization of Selected Fluorine-18 Labeled Radioligands for PET Imaging of the Dopamine D3 Receptor” (Molecules, 2016).
Where two headings read alike, the source gives them in different places.

Tests used:
dopamine D3 receptor = test: Dynamic small-animal PET recordings; type: in vivo; conditions: rat
Method: Small-animal PET imaging studies were conducted with male Sprague Dawleys rats (250–300 g) on a Inveon microPET scanner (Siemens Healthcare, Erlangen, Germany) under isoflurane (3%) anesthesia. After intravenous injection of [^18F]2b (10–15 MBq), dynamic emission recordings consisting of 13 frames of duration increasing from 30 s to 10 min were acquired to a total of 60 min. For displacement studies BP897 (1 mg/kg) was administered 30 min prior to radioligand injection. Dynamic emission images were corrected for attenuation and decay, and reconstructed by the iterative maximum a posteriori estimation, using software installed in the Inveon PET for dead time and random correction. The dynamic PET scan was then evaluated using the software Amide. The regions of interest were evaluated voxel based and the mean activity in %ID/g of each frame calculated.

D3 receptor [1] = conditions: cited from earlier work
[2] = parameters: method as in PMID 24339325, PMID 26707848; conditions: over 120 min, previously reported; cited from earlier work
[3] = Free fraction in rat plasma; type: in vitro ADME; conditions: for bound to proteins in plasma: of the injected dose; for free radioligand in rat plasma: Figure 3b
Method: (§1) The free fraction in vitro was determined by adding the respective radioligand (100 kBq) to plasma or CSF (200 µL) and mixed vigorously. Aliquots of 20–50 µL were transferred to size exclusion chromatography columns (MicroSpin G-50; GE Healthcare GmbH, Solingen, Germany, centrifuged for two min at 2000 rpm, and the radioactivity in the filtrate and in the resin were measured in the gamma-counter. Three independent experiments were performed in triplicates.
For the ex vivo determination of the radioligands binding to proteins the respective tracer (15 MBq) was administered intravenous to male Sprague Dawley rats (200–250 g) under isoflurane anesthesia. Blood samples were drawn intravenous after 5, 15 and 30 min and centrifuged for 5 min at 2000 rpm in heparin-coated vials. An aliquot of 50 µL was taken from the supernatant and added to an equal volume of water (10% TFA). The protein precipitate was centrifuged off for 5 min at 25,000 rpm and analyzed together with a further 50 µL aliquot of the supernatant in the gamma-counter. Two independent experiments were performed.

D3 receptor [4] = target: T1, D3 receptor (Rattus norvegicus, UniProt P19020); test: In vitro autoradiography of coronal rat brain sections; type: binding; conditions: displacement with BP897
T1 construct: In vitro autoradiography of coronal rat brain sections after incubation with the respective radioligand; from tissue; host or cells: coronal brain cryosections (20 µm) of male Sprague Dawley rats
T1 sequence (P19020 whole entry): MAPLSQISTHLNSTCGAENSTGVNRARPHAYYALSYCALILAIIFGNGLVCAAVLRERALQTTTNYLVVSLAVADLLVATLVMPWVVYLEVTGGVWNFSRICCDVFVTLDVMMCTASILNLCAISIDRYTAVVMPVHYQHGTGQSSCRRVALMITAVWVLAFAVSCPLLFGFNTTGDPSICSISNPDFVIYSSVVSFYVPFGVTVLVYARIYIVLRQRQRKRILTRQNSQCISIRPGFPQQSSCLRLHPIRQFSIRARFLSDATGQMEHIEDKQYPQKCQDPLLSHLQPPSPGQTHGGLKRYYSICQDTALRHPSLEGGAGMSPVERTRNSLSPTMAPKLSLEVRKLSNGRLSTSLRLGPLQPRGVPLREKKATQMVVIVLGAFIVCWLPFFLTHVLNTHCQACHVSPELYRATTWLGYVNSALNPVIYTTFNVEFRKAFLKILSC
Method: Male Sprague Dawley rats (200–250 g) were sacrificed by decapitation under deep isoflurane anesthesia and brains were removed and frozen in cooled hexane at −70 °C. Coronal brain sections (20 µm) were cut on a cryostat microtome (HM550, Microm-Thermo Fisher Scientific, Walldorf, Germany) and thaw-mounted on covered glass slides (Histobond®, Marienfeld, Lauda Königshofen, Germany). The thaw mounted sections were stored at −20 °C up to 14 days.
The cryostat sections were pre-incubated for 15 min in incubation buffer (50 mM Tris-HCl, 40 mM NaCl, pH 7.4) at room temperature. The sections were then placed in incubation buffer containing 5 MBq of the respective tracer. For displacement studies BP897 (50 nM or 1 µM) was added. The sections were incubated at room temperature for 45 min and afterwards washed in ice cold incubation buffer for 3 × 5 min. Subsequently, they were dipped in water and after drying placed on a phosphor imaging screen (Fujitsu, Berlin, Germany) over night. The screens were analyzed with a DUERR Medical HD-CR 35 Bio (Raytest, Straubenhardt, Germany) and evaluated using the software AIDA image analyzer (Raytest). For anatomical identification of brain regions, the sections were compared with figures in the rat brain atlas.

[5] = parameters: method as in PMID 24339325, PMID 26707848; conditions: experimental, pH 7.4, n = 6, previously reported; cited from earlier work
P-gp [6] = target: T2, P-gp (Homo sapiens, UniProt P08183); test: P-gp inhibition assay (cellular uptake) in EA.hy926 cells; type: cell-based; conditions: with vs without cyclosporin-A
T2 construct: endogenous in cells; host or cells: Caco-2
T2 sequence (P08183 whole entry): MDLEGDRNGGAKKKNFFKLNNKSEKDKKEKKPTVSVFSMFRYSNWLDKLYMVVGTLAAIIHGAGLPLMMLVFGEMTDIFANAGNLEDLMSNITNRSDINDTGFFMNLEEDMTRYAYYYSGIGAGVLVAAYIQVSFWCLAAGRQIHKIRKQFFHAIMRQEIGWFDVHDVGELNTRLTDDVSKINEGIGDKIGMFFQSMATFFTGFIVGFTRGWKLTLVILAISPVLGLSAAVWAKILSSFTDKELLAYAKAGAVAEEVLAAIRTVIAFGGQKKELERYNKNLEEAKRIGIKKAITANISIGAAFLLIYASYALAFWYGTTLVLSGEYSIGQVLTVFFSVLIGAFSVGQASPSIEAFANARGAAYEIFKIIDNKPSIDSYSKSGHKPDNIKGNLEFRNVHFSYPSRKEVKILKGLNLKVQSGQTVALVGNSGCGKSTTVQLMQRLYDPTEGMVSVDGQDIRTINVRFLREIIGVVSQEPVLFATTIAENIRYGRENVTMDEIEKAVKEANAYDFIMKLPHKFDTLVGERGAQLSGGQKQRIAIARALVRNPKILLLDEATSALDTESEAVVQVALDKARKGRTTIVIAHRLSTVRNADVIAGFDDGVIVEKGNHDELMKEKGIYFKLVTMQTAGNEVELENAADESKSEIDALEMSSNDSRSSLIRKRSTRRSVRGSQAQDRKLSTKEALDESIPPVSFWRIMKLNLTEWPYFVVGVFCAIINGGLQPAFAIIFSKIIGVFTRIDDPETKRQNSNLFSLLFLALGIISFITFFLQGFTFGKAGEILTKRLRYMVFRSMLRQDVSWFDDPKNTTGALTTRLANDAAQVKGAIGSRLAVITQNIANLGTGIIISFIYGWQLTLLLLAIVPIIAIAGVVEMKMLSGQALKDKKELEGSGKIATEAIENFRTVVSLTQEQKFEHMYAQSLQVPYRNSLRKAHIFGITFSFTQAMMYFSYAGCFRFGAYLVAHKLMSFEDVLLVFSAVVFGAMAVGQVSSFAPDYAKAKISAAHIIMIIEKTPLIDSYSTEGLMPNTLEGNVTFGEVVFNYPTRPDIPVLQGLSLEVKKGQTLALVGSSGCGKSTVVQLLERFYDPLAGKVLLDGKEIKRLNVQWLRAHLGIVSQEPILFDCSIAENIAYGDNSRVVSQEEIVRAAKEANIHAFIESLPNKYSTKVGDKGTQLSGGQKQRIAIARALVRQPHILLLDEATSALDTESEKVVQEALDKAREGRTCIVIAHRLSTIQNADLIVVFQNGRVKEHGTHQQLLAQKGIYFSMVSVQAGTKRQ
Method: (§2) EA.hy926 cells were seeded in culture medium at confluency the day prior to experiment or in case of the Caco-2 cells two days prior to experiment in 24-multiwell plates (Greiner Bio-One International GmbH, Kremsmünster, Austria). On the day of the experiment the culture medium was removed and the cells were washed once with PBS (500 µL). Culture medium supplemented with cyclosporine-A (5 µM for EA.hy926 and 10 µM for Caco-2) was added and the cells were incubated at 37 °C for 30 min. Afterwards 1 MBq of [^18F]2b was added to each well and incubated for further 30, 60 and 90 min. After incubation cells were washed with ice cold PBS (500 µL) and lysated with 0.1 M NaOH. The medium and lysates were analysed in the gamma-counter. To identify cyclosporine-A induced accumulation the experiment was also performed using culture medium lacking cyclosporine-A. As positive control the experiment was performed with ^99mTc-MIBI (100 kBq/well), a known P-gp substrate. To determine the lowermost concentration with which a maximum effect was obtained, cyclosporine-A was applied in a range of 0–50 µM and observed in a time frame of 30–120 min for both cell lines.

P-gp [7] = target: T2, P-gp; test: Bi-directional transport assay in Caco-2 cells; type: cell-based
Method: The procedure of initially adding equal concentrations to both compartments was adapted from the literature. Caco-2 cells were seeded near confluency in thin-cert inserts (translucent, Ø 0.4 µm, 24 well PET membrane, Greiner) and placed in multiwell plates (CELLSTAR 24 Multiwell plates, Greiner). The culture medium basolateral (multiwell) and apical (insert) was renewed every 2–3 days. Approximately 12 days after seeding the Caco-2 cells reached their highest trans-epithelial resistance, which was monitored every four days and on day of the experiment. An immunocytochemistry was also performed with an additional insert (translucent) to confirm stable formation of tight-junctions and cell monolayer. Culture medium was then removed and the cells were washed with PBS. Culture medium supplemented with cyclosporin (10 µM) was added to both compartments and the cells were incubated at 37 °C for 30 min. Afterwards 1 MBq [^18F]2b was added to each compartment. An aliquot was taken from each compartment after 0, 30, 60 and 90 min and analyzed in the gamma-counter. To identify cyclosporine-A induced accumulation the experiment was also performed using culture medium lacking cyclosporine-A. As positive control the experiment was performed with ^99mTc-MIBI (100 kBq/ compartment).

P-gp [8] = target: T2, P-gp; test: P-gp inhibition assay (cellular uptake) in Caco-2 cells; type: cell-based; conditions: with vs without cyclosporin-A
Method: as §2

[9] = Determination of log D7.4 (experimental); type: physicochemical; conditions: pH 7.4, n = 6
Method: Human serum was purchased (Biochrom, Biochrom, UK). Human plasma and cerebrospinal fluid was a kind gift from the laboratory of Prof. P. Lewczuk of the clinical neurochemistry in Erlangen. Rat plasma was collected from male Sprague Dawley blood samples. The blood samples were collected intravenous and centrifuged at 2000 rpm for 15 min in heparin coated vials. The supernatant was stored in aliquots at −20 °C. Radioactivity was measured with radio HPLC or in a gamma-counter (Wallac Wizard, PerkinElmer, Waltham, MA, USA). The determination of the distribution coefficient at pH 7.4 (log D7.4) has been previously published.

[10] = In vivo stability in blood of living rats (radiometabolites); parameters: species or system rat
Method: For the determination of radioligand stability in vivo and detection of radiometabolites the respective radiotracer (15 MBq) was administered intravenous to male Sprague Dawley rats (200–250 g) under isoflurane anesthesia. Blood samples were drawn intravenous after 5, 15 and 30 min and centrifuged for 5 min at 2000 rpm in heparin-coated vials. An aliquot of 50 µL was taken from the supernatant and added to an equal volume of water (10% TFA). The protein precipitate was centrifuged off for 5 min at 25,000 rpm and an aliquot of the supernatant was fractioned with HPLC (Chromolith RP-18e, 100 mm × 4.6 mm, 4 mL/min, solvent A: water (0.1% TFA), solvent B: acetonitrile (0.1% TFA), gradient A/B: 90:10 to 0:100 in 15 min, λ = 214 nm). The fractions were then analyzed in the gamma-counter. To identify the fractions containing the intact radioligand, the retention time and fractioning of the respective tracer was previously assessed. Two independent experiments were performed.

[11] = In vitro stability in human serum; type: in vitro ADME; conditions: 37 °C, after 120 min
Method: For the in vitro stability, an aliquot of the respective radioligand (1–5 MBq) was added to human serum (200 μL) and incubated at 37 °C. Aliquots (20 μL) were taken after 15, 30 and 120 min and analyzed by radio-HPLC (Method 1).

[12] = Binding to proteins in human plasma in vitro; type: in vitro ADME; conditions: human vs rat plasma
Method: as §1

[13] = Caco-2, absence of cyclosporin-A, up to 90 min

O=C(/N=N/c1ccc([18F])cc1)NCCC(O)CN1CCN(c2cccc(Cl)c2Cl)CC1 (centres unmarked) [[^18F]2a]
brain uptake smaller than for [^18F]2b, factor (dopamine D3 receptor): 1.5 | uptake in the pituitary gland (dopamine D3 receptor; 25 min p.i.): 0.6 %ID/g | Ki (D3 receptor [1]): 3.6 nM | decomposition in human serum [2]: no decomposition was observed | bound to proteins in plasma [3]: 82% | free radioligand in rat plasma [3]: 18% | binding pattern in rat brain sections (D3 receptor [4]): homogenous non-specific binding throughout the whole rat brain sections | Log D7.4 [5]: 2.56 ± 0.01

[99Tc].[C-]#[N+]CC(C)(C)OC.[C-]#[N+]CC(C)(C)OC.[C-]#[N+]CC(C)(C)OC.[C-]#[N+]CC(C)(C)OC.[C-]#[N+]CC(C)(C)OC.[C-]#[N+]CC(C)(C)OC [^99mTc-MIBI, ^99mTc-methylisobutylnitrile, reference compound]
influence of cyclosporin-A on cellular uptake (P-gp [6]): accumulated | concentration in the apical compartment, % of the initial concentration (P-gp [7]; [13]): 120% | concentration in the basolateral compartment, % of the initial concentration (P-gp [7]; [13]): 70% | concentration in the basolateral compartment (P-gp [7]; Caco-2, presence of cyclosporin-A): remained nearly constant | concentration in the apical compartment, % of the initial concentration (P-gp [7]; Caco-2, presence of cyclosporin-A (^99mTc-MIBI after 60 and 90 min; [^18F]2b after 30 min)): 90% | influence of cyclosporin-A on cellular uptake (P-gp [8]): accumulated

O=C(NCCC(O)CN1CCN(c2cccc(Cl)c2Cl)CC1)c1ccc(F)nc1 (centres unmarked) [[^18F]1, N-(4-(4-(2,3-Dichlorophenyl)piperazine-1-yl)-3-hydroxybutyl)-6-fluoronicotinamide]
uptake in the pituitary gland (dopamine D3 receptor; 30 min p.i.): 0.45 %ID/g | maximum uptake in the cerebral matter (dopamine D3 receptor; after 50 seconds): 0.25 %ID/g | uptake in the cerebral matter after wash-out (dopamine D3 receptor; over the 60 min of recording): 0.17 %ID/g | logD [9]: 2.5 ± 0.04 | intact tracer in rat plasma ([10]; 15 min post intravenous injection): 57% | intact tracer in rat plasma ([10]; nearly constant over the total sampling time): ~ 60% | Ki (D3 receptor [1]): 1.9 nM | decomposition in human serum [11]: ≤ 2% | binding to human plasma higher than in rat plasma [12]: 20%–30% | bound to proteins in plasma [3]: 58% | free radioligand in rat plasma [3]: 42% | binding pattern in rat brain sections (D3 receptor [4]): pronounced non-specific binding in the corpus callosum and anterior commissure
